Experimental data as given in patent US11453683B1, “KRas G12D inhibitors” (Mirati Therapeutics, Inc., priority 2019, dated 2022).
Where a name gives a salt, the structure may show the parent alone.

system: KRas G12D-mediated phosphorylation of ERK; assay: Inhibition of KRas G12D-mediated phosphorylation of ERK in AGS cells; format: cell-based; conditions: Homo sapiens; AGS cells expressing G12D, 3 hours, phospho-ERK normalized to GAPDH
Method: Cells were plated in tissue culture treated 96 well plates at a density of 40,000 cells/well and allowed to attach for 12-14 hours. Diluted compounds were then added in a final concentration of 0.5% DMSO. After 3 hours, the medium was removed, 150 μL of 4.0% formaldehyde was added and the plates incubated at room temperature for 20 minutes. The plates were washed with PBS, and permeabilized with 150 μL of ice cold 100% methanol for 10 minutes. Non-specific antibody binding to the plates was blocked using 100 μL Licor blocking buffer (Li-Cor Biotechnology, Lincoln Nebr.) for 1 hour at room temperature.
The amount of phospho-ERK was determined using an antibody specific for the phosphorylated form of ERK and compared to the amount of GAPDH. Primary antibodies used for the detection were added as follows: Phospho-ERK (Cell Signaling cs-9101) diluted 1:500 and GAPDH (Millipore MAB374) diluted 1:5000 in Licor block+0.05% Tween 20. The plates were incubated for 2 hours at room temperature. The plates were washed with PBS+0.05% Tween 20.
Secondary antibodies used to visualize primary antibodies were added as follows: Anti-rabbit-680 diluted 1:1000 and Anti-mouse-800 diluted 1:1000 both in Licor block+0.05% TweeN2O, and were incubated for 1 hour at room temperature. The plates were washed with PBS+0.05% Tween 20. A 100 μL aliquot of PBS was added to each well and the plates were read on a Li-Cor Odyssey CLX plate reader.
The phospho-ERK (Thr202/Tyr204 signal was normalized to the GAPDH signal for each well and percent of DMSO control values were calculated. IC50 values were generated using a 4-parameter fit of the dose response curve

Structure (SMILES)	IC50
Fc1c(-c2cccc(Cl)c2C2CC2)ncc2c(N3CC4CCC(C3)N4)nc(OCC34CCCN3C[C@H](F)C4)nc12 (mixture of isomers) [Example 342, 4-((1R,5S)-3,8-diazabicyclo[3.2.1]octan-3-yl)-7-(3-chloro-2-cyclopropylphenyl)-8-fluoro-2-((2-fluorotetrahydro-1H-pyrrolizin-7a(5H)-yl)methoxy)pyrido[4,3-d]pyrimidine]	1 µM
Fc1c(-c2c(C(F)(F)F)ccc3[nH]ncc23)ncc2c(N3CC4CCC(C3)N4)nc(OCC34CCCN3C[C@H](F)C4)nc12 (mixture of isomers) [Example 343, 4-((1R,5S)-3,8-diazabicyclo[3.2.1]octan-3-yl)-8-fluoro-2-((2-fluorotetrahydro-1H-pyrrolizin-7a(5H)-yl)methoxy)-7-(5-(trifluoromethyl)-1H-indazol-4-yl)pyrido[4,3-d]pyrimidine]	1.62 µM
Fc1c(-c2cccc3cccc(Cl)c23)ncc2c(N3CC4CCC(C3)N4)nc(OC[C@@]34CCCN3C[C@H](F)C4)nc12 (stereo in doubt) [Example 134, 4-((1R,5S)-3,8-diazabicyclo[3.2.1]octan-3-yl)-7-(8-chloronaphthalen-1-yl)-8-fluoro-2-((2-fluorotetrahydro-1H-pyrrolizin-7a(5H)-yl)methoxy)pyrido[4,3-d]pyrimidine]	0.895 µM
Cn1cc([C@H]2CN3CCC[C@]3(COc3nc(N4CC5CCC(C4)N5)c4cnc(-c5cccc6cccc(Cl)c56)c(F)c4n3)C2)cn1 (stereo in doubt) [Example 220, 4-((1R,5S)-3,8-diazabicyclo[3.2.1]octan-3-yl)-7-(8-chloronaphthalen-1-yl)-8-fluoro-2-((2-(1-methyl-1H-pyrazol-4-yl)tetrahydro-1H-pyrrolizin-7a(5H)-yl)methoxy)pyrido[4,3-d]pyrimidine tris-hydrochloride salt]	1.34 µM
Fc1c(-c2cccc3cccc(Cl)c23)ncc2c(N3CC4CCC(C3)N4)nc(OC[C@]34CCCN3C[C@H](c3ccccc3)C4)nc12 (stereo in doubt) [Example 221, 4-((1R,5S)-3,8-diazabicyclo[3.2.1]octan-3-yl)-7-(8-chloronaphthalen-1-yl)-8-fluoro-2-((2-phenyltetrahydro-1H-pyrrolizin-7a(5H)-yl)methoxy)pyrido[4,3-d]pyrimidine bis-hydrochloride salt]	15.8 µM
O[C@H]1CN2CCC[C@]2(COc2nc(N3CC4CCC(C3)N4)c3cnc(-c4cccc5cccc(Cl)c45)c(F)c3n2)C1 (stereo in doubt) [Example 224, 7a-(((4-((1R,5S)-3,8-diazabicyclo[3.2.1]octan-3-yl)-7-(8-chloronaphthalen-1-yl)-8-fluoropyrido[4,3-d]pyrimidin-2-yl)oxy)methyl)hexahydro-1H-pyrrolizin-2-ol bis-hydrochloride]	6.38 µM
C[C@H]1CN2CCC[C@@]2(COc2nc(N3CC4CCC(C3)N4)c3cnc(-c4cccc5cccc(Cl)c45)c(F)c3n2)C1 (stereo in doubt) [Example 227, 4-((1R,5S)-3,8-diazabicyclo[3.2.1]octan-3-yl)-7-(8-chloronaphthalen-1-yl)-8-fluoro-2-((2-methyltetrahydro-1H-pyrrolizin-7a(5H)-yl)methoxy)pyrido[4,3-d]pyrimidine bis-hydrochloride]	2.98 µM
CCc1c(F)ccc2cccc(-c3ncc4c(N5CC6CCC(C5)N6)nc(OC[C@@]56CCCN5C[C@H](F)C6)nc4c3F)c12 (stereo in doubt) [Example 381, 4-((1R,5S)-3,8-diazabicyclo[3.2.1]octan-3-yl)-7-(8-ethyl-7-fluoronaphthalen-1-yl)-8-fluoro-2-((2-fluorotetrahydro-1H-pyrrolizin-7a(5H)-yl)methoxy)pyrido[4,3-d]pyrimidine]	0.708 µM
COC[C@H]1CC[C@@]2(COc3nc(N4CC5CCC(C4)N5)c4cnc(-c5cc(O)cc6ccccc56)c(F)c4n3)CCCN12 (stereo in doubt) [Example 389, 4-(4-((1R,5S)-3,8-diazabicyclo[3.2.1]octan-3-yl)-8-fluoro-2-((3-(methoxymethyl)tetrahydro-1H-pyrrolizin-7a(5H)-yl)methoxy)pyrido[4,3-d]pyrimidin-7-yl)naphthalen-2-ol]	0.781 µM
COC(c1ccc(O)cc1-c1ncc2c(N3CC4CCC(C3)N4)nc(OC[C@@]34CCCN3C[C@H](F)C4)nc2c1F)C(F)(F)F (stereo in doubt) [Example 390, 3-(4-((1R,5S)-3,8-diazabicyclo[3.2.1]octan-3-yl)-8-fluoro-2-((2-fluorotetrahydro-1H-pyrrolizin-7a(5H)-yl)methoxy)pyrido[4,3-d]pyrimidin-7-yl)-4-(2,2,2-trifluoro-1-methoxyethyl)phenol]	6.11 µM
CC(C)c1ccc(O)cc1-c1ncc2c(N3CC4CCC(C3)N4)nc(OC[C@@]34CCCN3C[C@H](F)C4)nc2c1F (stereo in doubt) [Example 399, 3-(4-((1R,5S)-3,8-diazabicyclo[3.2.1]octan-3-yl)-8-fluoro-2-((2-fluorotetrahydro-1H-pyrrolizin-7a(5H)-yl)methoxy)pyrido[4,3-d]pyrimidin-7-yl)-4-isopropylphenol]	0.51 µM
Cc1c(Cl)cc2[nH]ncc2c1-c1ncc2c(N3CC4CCC(C3)N4)nc(OC[C@@]34CCCN3C[C@H](F)C4)nc2c1F (stereo in doubt) [Example 401, 4-((1R,5S)-3,8-diazabicyclo[3.2.1]octan-3-yl)-7-(6-chloro-5-methyl-1H-indazol-4-yl)-8-fluoro-2-((2-fluorotetrahydro-1H-pyrrolizin-7a(5H)-yl)methoxy)pyrido[4,3-d]pyrimidine]	0.604 µM
CO[C@H]1CN2CCC[C@]2(COc2nc(N3CC4CCC(C3)N4)c3cnc(-c4cc(O)cc5cccc(F)c45)c(F)c3n2)C1 (stereo in doubt) [Example 406, 4-(4-((1R,5S)-3,8-diazabicyclo[3.2.1]octan-3-yl)-8-fluoro-2-((2-methoxytetrahydro-1H-pyrrolizin-7a(5H)-yl)methoxy)pyrido[4,3-d]pyrimidin-7-yl)-5-fluoronaphthalen-2-ol]	0.44 µM
C#Cc1cccc2cc(O)cc(-c3ncc4c(N5CC6CCC(C5)N6)nc(OC[C@@]56CCCN5C[C@H](OC)C6)nc4c3F)c12 (stereo in doubt) [Example 410, 4-(4-((1R,5S)-3,8-diazabicyclo[3.2.1]octan-3-yl)-8-fluoro-2-((2-methoxytetrahydro-1H-pyrrolizin-7a(5H)-yl)methoxy)pyrido[4,3-d]pyrimidin-7-yl)-5-ethynylnaphthalen-2-ol]	0.008 µM
CN1CCC[C@H]1COc1nc(N2C[C@H]3CC[C@@H](C2)N3)c2cnc(-c3cc(O)cc4ccccc34)cc2n1 [Example 1, 4-(4-((1R,5S)-3,8-diazabicyclo[3.2.1]octan-3-yl)-2-(((S)-1-methylpyrrolidin-2-yl)methoxy)pyrido[4,3-d]pyrimidin-7-yl)naphthalen-2-ol tris-hydrochloride salt]	3.16 µM
Cn1ccnc1CCOc1nc(N2C[C@H]3CC[C@@H](C2)N3)c2cnc(-c3cc(O)cc4ccccc34)c(F)c2n1 [Example 3, 4-(4-((1R,5S)-3,8-diazabicyclo[3.2.1]octan-3-yl)-8-fluoro-2-(2-(1-methyl-1H-imidazol-2-yl)ethoxy)pyrido[4,3-d]pyrimidin-7-yl)naphthalen-2-ol]	10.3 µM
Oc1cc(-c2ncc3c(N4C[C@H]5CC[C@@H](C4)N5)nc(OCCc4ccccn4)nc3c2F)c2ccccc2c1 [Example 4, 4-(4-((1R,5S)-3,8-diazabicyclo[3.2.1]octan-3-yl)-8-fluoro-2-(2-(pyridin-2-yl)ethoxy)pyrido[4,3-d]pyrimidin-7-yl)naphthalen-2-ol]	8.53 µM
Cn1nccc1COc1nc(N2C[C@H]3CC[C@@H](C2)N3)c2cnc(-c3cc(O)cc4ccccc34)c(F)c2n1 [Example 5, 4-(4-((1R,5S)-3,8-diazabicyclo[3.2.1]octan-3-yl)-8-fluoro-2-((1-methyl-1H-pyrazol-5-yl)methoxy)pyrido[4,3-d]pyrimidin-7-yl)naphthalen-2-ol]	8.19 µM
Cc1cccnc1CCOc1nc(N2C[C@H]3CC[C@@H](C2)N3)c2cnc(-c3cc(O)cc4ccccc34)c(F)c2n1 [Example 6, 4-(4-((1R,5S)-3,8-diazabicyclo[3.2.1]octan-3-yl)-8-fluoro-2-(2-(3-methylpyridin-2-yl)ethoxy)pyrido[4,3-d]pyrimidin-7-yl)naphthalen-2-ol]	11.5 µM
CN1CCC[C@H]1CCOc1nc(N2C[C@H]3CC[C@@H](C2)N3)c2cnc(-c3cc(O)cc4ccccc34)c(F)c2n1 [Example 10, 4-(4-((1R,5S)-3,8-diazabicyclo[3.2.1]octan-3-yl)-8-fluoro-2-(2-((S)-1-methylpyrrolidin-2-yl)ethoxy)pyrido[4,3-d]pyrimidin-7-yl)naphthalen-2-ol]	8.12 µM
CCN1CCC[C@H]1COc1nc(N2C[C@H]3CC[C@@H](C2)N3)c2cnc(-c3cc(O)cc4ccccc34)c(F)c2n1 [Example 11, 4-(4-((1R,5S)-3,8-diazabicyclo[3.2.1]octan-3-yl)-2-(((S)-1-ethylpyrrolidin-2-yl)methoxy)-8-fluoropyrido[4,3-d]pyrimidin-7-yl)naphthalen-2-ol]	1.08 µM
